{"source": "patent US7378530B2", "about": "“Anti-cancer and anti-microbial 5-membered heterocyclic compounds” (Nereus Pharmaceuticals, Inc., priority 2005, dated 2008)", "key": {"[1]": {"system": "Staphylococcus aureus - MSSA", "assay": "Antimicrobial assay, MIC (NCCLS M7-A5)", "assay_type": "cell-based, Staphylococcus aureus (methicillin sensitive)", "description": "(§1) Minimum inhibitory concentrations (MICs) were determined according to the National Committee for Clinical Laboratory Standards (NCCLS) susceptibility test guideline M7-A5 (Ferraro, M. 2001 Methods for Dilution Antimicrobial Susceptibility Tests for Bacteria that Grow Aerobically; Approved Standard (NCCLS). National Committee for Clinical Laboratory Standards (NCCLS), Villanova, which is incorporated herein by reference in its entirety). The compound of formula VI was tested in DMSO while the compound of formula VII was tested in aqueous MeOH. The compound of formulae VIII and IX were tested in DMSO."}, "PSSP": {"system": "PSSP", "assay": "Antimicrobial assay, MIC (NCCLS M7-A5)", "assay_type": "cell-based, Streptococcus pneumonia (penicillin sensitive)", "conditions": "Streptococcus pneumoniae", "description": "as §1"}, "H. inf. 49247": {"system": "H. inf. 49247", "assay": "Antimicrobial assay, MIC (NCCLS M7-A5)", "assay_type": "cell-based", "conditions": "Haemophilus influenzae", "description": "as §1"}, "H. inf. 49766": {"system": "H. inf. 49766", "assay": "Antimicrobial assay, MIC (NCCLS M7-A5)", "assay_type": "cell-based", "conditions": "Haemophilus influenzae", "description": "as §1"}, "[2]": {"system": "Staphylococcus aureus - MRSA", "assay": "Antimicrobial assay, MIC (NCCLS M7-A5)", "assay_type": "cell-based, Staphylococcus aureus (methicillin resistant)", "description": "as §1"}, "[3]": {"system": "Gram-positive microorganisms tested", "assay": "Antimicrobial assays, summary for Gram-positive microorganisms", "assay_type": "cell-based", "description": "as §1"}, "[4]": {"system": "Gram-negative microorganism Haemophilus influenzae", "assay": "Antimicrobial assays, summary for Haemophilus influenzae", "assay_type": "cell-based", "description": "as §1"}, "S. epi. 700582": {"system": "S. epi. 700582", "assay": "Antimicrobial assay, MIC (NCCLS M7-A5)", "assay_type": "cell-based, Staphylococcus epidermis (multiple drug resistant)", "conditions": "Staphylococcus", "description": "as §1"}, "S. epi. 700578": {"system": "S. epi. 700578", "assay": "Antimicrobial assay, MIC (NCCLS M7-A5)", "assay_type": "cell-based, Staphylococcus epidermis (multiple drug resistant)", "conditions": "Staphylococcus", "description": "as §1"}, "E. c. MCR106": {"system": "E. c. MCR106", "assay": "Antimicrobial assay, MIC (NCCLS M7-A5)", "assay_type": "cell-based", "description": "as §1"}, "E. c. 25922": {"system": "E. c. 25922", "assay": "Antimicrobial assay, MIC (NCCLS M7-A5)", "assay_type": "cell-based", "description": "as §1"}, "E. c. imp": {"system": "E. c. imp", "assay": "Antimicrobial assay, MIC (NCCLS M7-A5)", "assay_type": "cell-based", "description": "as §1"}, "Candida albicans": {"system": "Candida albicans", "assay": "Antimicrobial assay, MIC (NCCLS M7-A5)", "assay_type": "cell-based", "description": "as §1"}, "VSE": {"system": "VSE", "assay": "Antimicrobial assay, MIC (NCCLS M7-A5)", "assay_type": "cell-based, Enterococcus faecalis (vancomycin sensitive)", "conditions": "Enterococcus faecalis", "description": "as §1"}, "VRE": {"system": "VRE", "assay": "Antimicrobial assay, MIC (NCCLS M7-A5)", "assay_type": "cell-based, Enterococcus faecium (vancomycin resistant)", "conditions": "Enterococcus", "description": "as §1"}, "PRSP": {"system": "PRSP", "assay": "Antimicrobial assay, MIC (NCCLS M7-A5)", "assay_type": "cell-based, Streptococcus pneumonia (penicillin resistant)", "conditions": "Streptococcus pneumoniae", "description": "as §1"}, "B16-F10 cells": {"system": "B16-F10 cells", "assay": "Growth inhibition of murine melanoma B16-F10 cells (resazurin fluorescence)", "assay_type": "cell-based", "description": "B16-F10 (ATCC; CRL-6475) a murine melanoma cell line was maintained in complete Dulbecco's Modification of Eagle's Medium (DMEM) (DMEM supplemented with 10% (v/v) Fetal bovine serum, 2 mM glutamine, 10 mM HEPES and Penicillin/Streptomycin at 100 IU/ml and 100 μg/ml respectively). The cells were cultured in an incubator at 37° C. in 5% CO2 and 95% humidified air. […] 20 mM stock solutions of formula VI were prepared in 100% DMSO. 10× concentrated serial dilutions of formula VI were prepared in complete media. Ten μl volumes of the serial dilutions were added to the test wells in triplicate resulting in final concentrations ranging from 20 μM to 6.32 nM. The plates were returned to the incubator for 48 hours. The final concentration of DMSO was 0.25% in all samples. Following 48 hours of drug exposure, 10 μl of 0.2 mg/ml resazurin (obtained from Sigma-Aldrich Chemical Co.) in Mg^2+, Ca^2+ free phosphate buffered saline was added to each well and the plates were returned to the incubator for 3-6 hours. Since living cells metabolize Resazurin, the fluorescence of the reduction product of Resazurin was measured using a Fusion microplate fluorometer (Packard Bioscience) with λex=535 nm and λem=590 nm filters. Resazurin dye in medium without cells was used to determine the background, which was subtracted from the data for all experimental wells. […]"}}}
{"smiles": "CCCCCCC/C(C)=C/C(=O)CC(=N)OC(CCCC)C(=O)O", "note": "(stereo not shown) [Formula IX]", "values": [{"measurement": "MIC", "setting": "[1]; tested in DMSO", "result": 24, "unit": "mg/L"}, {"measurement": "MIC", "setting": "PSSP; tested in DMSO", "result": "> 32", "unit": "mg/L"}, {"measurement": "MIC", "setting": "H. inf. 49247; tested in DMSO", "result": "> 32", "unit": "mg/L"}, {"measurement": "MIC", "setting": "H. inf. 49766; tested in DMSO", "result": "> 32", "unit": "mg/L"}, {"measurement": "MIC", "setting": "[2]; tested in DMSO", "result": "> 32", "unit": "mg/L"}]}
{"smiles": "CCCCCC/C(C)=C/C(=O)C=C1NC(=O)C(CCCC)O1", "note": "(stereo not shown) [Formula VIII]", "values": [{"measurement": "anti-bacterial activity versus the Gram-positive microorganisms tested (statement in words)", "setting": "[3]", "result": "possess anti-bacterial activity"}, {"measurement": "MIC", "setting": "[1]; tested in DMSO", "result": 4, "unit": "mg/L"}, {"measurement": "MIC", "setting": "PSSP; tested in DMSO", "result": 10, "unit": "mg/L"}, {"measurement": "MIC", "setting": "H. inf. 49247; tested in DMSO", "result": 16, "unit": "mg/L"}, {"measurement": "MIC", "setting": "H. inf. 49766; tested in DMSO", "result": 5, "unit": "mg/L"}, {"measurement": "MIC", "setting": "[2]; tested in DMSO", "result": 3, "unit": "mg/L"}, {"measurement": "activity against the Gram-negative microorganism Haemophilus influenzae (statement in words)", "setting": "[4]", "result": "weakly active"}]}
{"smiles": "CCCCCCC/C(C)=C/C(=O)C=C1NC(=O)C(CCCCC)O1", "note": "(stereo not shown) [Formula VII]", "values": [{"measurement": "MIC", "setting": "S. epi. 700582; tested in aqueous MeOH", "result": 0.75, "unit": "mg/L"}, {"measurement": "MIC", "setting": "S. epi. 700578; tested in aqueous MeOH", "result": 1.25, "unit": "mg/L"}, {"measurement": "anti-bacterial activity versus the Gram-positive microorganisms tested (statement in words)", "setting": "[3]", "result": "possess anti-bacterial activity"}, {"measurement": "MIC", "setting": "[1]; tested in aqueous MeOH", "result": 6, "unit": "mg/L"}, {"measurement": "MIC", "setting": "PSSP; tested in aqueous MeOH", "result": 8, "unit": "mg/L"}, {"measurement": "MIC", "setting": "E. c. MCR106; tested in aqueous MeOH", "result": "> 32", "unit": "mg/L"}, {"measurement": "MIC", "setting": "E. c. 25922; tested in aqueous MeOH", "result": "> 32", "unit": "mg/L"}, {"measurement": "MIC", "setting": "H. inf. 49247; tested in aqueous MeOH", "result": 12, "unit": "mg/L"}, {"measurement": "MIC", "setting": "H. inf. 49766; tested in aqueous MeOH", "result": 16, "unit": "mg/L"}, {"measurement": "MIC", "setting": "E. c. imp; tested in aqueous MeOH", "result": "> 32", "unit": "mg/L"}, {"measurement": "MIC", "setting": "Candida albicans; tested in aqueous MeOH", "result": "> 32", "unit": "mg/L"}, {"measurement": "MIC", "setting": "[2]; tested in aqueous MeOH", "result": 1.5, "unit": "mg/L"}, {"measurement": "activity against the Gram-negative microorganism Haemophilus influenzae (statement in words)", "setting": "[4]", "result": "weakly active"}, {"measurement": "MIC", "setting": "VSE; tested in aqueous MeOH", "result": 3, "unit": "mg/L"}, {"measurement": "MIC", "setting": "VRE; tested in aqueous MeOH", "result": 1.5, "unit": "mg/L"}, {"measurement": "MIC", "setting": "PRSP; tested in aqueous MeOH", "result": 6, "unit": "mg/L"}]}
{"smiles": "CCCCCCC/C(C)=C/C(=O)C=C1NC(=O)C(CCCC)O1", "note": "(stereo not shown) [Formula VI]", "values": [{"measurement": "growth of B16-F10 tumor cells (statement in words)", "setting": "B16-F10 cells", "result": "inhibits the growth"}, {"measurement": "EC50", "setting": "B16-F10 cells; Mus musculus, B16-F10, 48 hours drug exposure, mean ± standard deviation of three independent experiments, read-out: EC50 against B16-F10 cells", "result": "6 ± 2.6", "unit": "µM"}, {"measurement": "MIC", "setting": "S. epi. 700582; tested in DMSO", "result": 0.54, "unit": "mg/L"}, {"measurement": "MIC", "setting": "S. epi. 700578; tested in DMSO", "result": 0.54, "unit": "mg/L"}, {"measurement": "anti-bacterial activity versus the Gram-positive microorganisms tested (statement in words)", "setting": "[3]", "result": "possess anti-bacterial activity"}, {"measurement": "MIC", "setting": "[1]; tested in DMSO", "result": 0.88, "unit": "mg/L"}, {"measurement": "MIC", "setting": "PSSP; tested in DMSO", "result": 2.58, "unit": "mg/L"}, {"measurement": "MIC", "setting": "E. c. MCR106; tested in DMSO", "result": "> 32", "unit": "mg/L"}, {"measurement": "MIC", "setting": "E. c. 25922; tested in DMSO", "result": "> 32", "unit": "mg/L"}, {"measurement": "MIC", "setting": "H. inf. 49247; tested in DMSO", "result": 12, "unit": "mg/L"}, {"measurement": "MIC", "setting": "H. inf. 49766; tested in DMSO", "result": 12, "unit": "mg/L"}, {"measurement": "MIC", "setting": "E. c. imp; tested in DMSO", "result": "> 32", "unit": "mg/L"}, {"measurement": "MIC", "setting": "Candida albicans; tested in DMSO", "result": "> 32", "unit": "mg/L"}, {"measurement": "MIC", "setting": "[2]; tested in DMSO", "result": 1.04, "unit": "mg/L"}, {"measurement": "activity against the Gram-negative microorganism Haemophilus influenzae (statement in words)", "setting": "[4]", "result": "weakly active"}, {"measurement": "MIC", "setting": "VSE; tested in DMSO", "result": 3.67, "unit": "mg/L"}, {"measurement": "MIC", "setting": "VRE; tested in DMSO", "result": 1.83, "unit": "mg/L"}, {"measurement": "MIC", "setting": "PRSP; tested in DMSO", "result": 4.67, "unit": "mg/L"}]}
